Laboratory results reported in patent publication US20240336638A1, “IMIDAZOLE COMPOUND, AND INTERMEDIATE AND APPLICATION THEREOF” (priority 2021, published 2024).
Where two headings read alike, the source gives them in different places.

Experiments:
[1] = tested on: AA-induced platelet aggregation; assay: Inhibitory effect on AA-induced platelet aggregation in rats in vitro (washed platelets); format: cell-based, rat; conditions: 1*10^−4 M
Method: Several experimental groups were established, including a blank control group, an AA (arachidonic acid) model control group, and various test compounds. Each test compound had three concentration groups: 10^−3 M, 10^−4 M, and 10^−5 M. The data from the blank and model control group were shared among the different drug concentration groups as a control.
Male SD rats were anesthetized with 3% chloral hydrate (300 mg/kg) through intraperitoneal injection. After being fixed in a supine position, the skin of the neck was cut about 3 cm, bluntly separated with a hemostat, and the trachea was exposed after the common carotid artery was separated. The distal end of the common carotid artery was ligated with a fine thread, and the proximal end was clamped with an arterial clamp for vascular intubation. After the intubation was fixed, the artery clamp was opened, and the blood was placed into a blood collection tube containing 3.8% trisodium citrate so that the blood was mixed well with the 3.8% trisodium citrate in a volume ratio of 9:1.
The prepared anticoagulant blood was mixed well and centrifuged for 10 minutes at 500 rpm, then the upper layer of plasma was aspirated to obtain platelet-rich plasma (PRP), and the PRP was centrifuged again for 5 minutes at 3,000 rpm. The supernatant was discarded, and the platelet precipitate was obtained, which was washed once with Ca^2+-free HEPES-Tyrode's buffer, then centrifuged at 3,000 rpm for 5 minutes. The supernatant was discarded, and the platelets were resuspended with Ca^2+-free HEPES-Tyrode's buffer to obtain the washed platelets.
First, 300 μL of Ca^2+-containing HEPES-Tyrode's solution was taken into the test cup, put into the test wells, and calibrated by pressing the “PPP” key. Subsequently, 240 μL of the washed platelets were added to the test cup, then added with 30 μL of different concentrations of drug solution, incubated for 10 minutes at 37° C. in a preheated bath, and then put into the test wells. 3 μL of 100× CaCl2 solution (final concentration of 0.2 g/L) and 30 μL of inducer (final concentration of AA of 800 μM) were added to the test wells, and then the “Start” key was pressed immediately. The maximum aggregation rate was recorded every 60 s. The measurement was repeated three times for each concentration for 10 minutes, and the aggregation curve was plotted.
The platelet aggregation inhibition rate was calculated with the following formula:
Inhibition rate (%)=(maximum aggregation rate in the model control group−maximum aggregation rate in the administration group)/maximum aggregation rate in the model control group×100%
All data were expressed as mean±standard deviation (mean±SD). SPSS 22.0 software was used for statistical analysis of the data. Intergroup data were analyzed using one-way ANOVA, with P<0.05 considered as statistically significant and P<0.01 considered as highly significant.

[2] = Pharmacokinetics in SD rats after single IV and PO administration, plasma; format: in vivo; conditions: for Vd / AUC(0-inf) / AUC(0-t) / C0 / Cmax / Tmax / half-life / MRT last / MRT inf / bioavailability: Sprague-Dawley (SD), rat plasma; for Vd: rat, plasma, iv, 1 mg/kg; for MRT last: read-out: MRT(0−t); for MRT inf: read-out: MRT(0−∞); for bioavailability: PO 6 mg/kg vs IV 1 mg/kg
Method: The experimental method of administration by gavage injection in rats: SD rats weighing 180 to 220 g were fasted for 12 hours prior to the experiment, with free access to water. After administration, food and water were withheld for 4 hours. After this 4-hour period, the rats were allowed free access to water, and food was provided after 8 hours. The drugs were administered at a set dose. N=3, blood samples were taken before administration, and 5 minutes, 0.25 hours, 0.5 hours, 0.75 hours, 1 hour, 2 hours, 4 hours, 8 hours, and 24 hours after administration, respectively, and placed into sodium heparin anticoagulant tubes. The tubes were centrifuged for 1 hour at 4° C. and at 8000 rpm for 5 minutes, and the plasma was then separated and stored in centrifuge tubes at −70° C. for analysis. The experimental method of intravenous administration to rats: SD rats weighing 180 to 220 g were fasted for 12 hours prior to the experiment, with free access to water. After administration, food and water were withheld for 4 hours. After this 4-hour period, the rats were allowed free access to water, and food was provided after 8 hours. The drugs were administered at a set dose. N=3, blood samples were taken before administration, and 5 minutes, 0.25 hours, 0.5 hours, 0.75 hours, 1 hour, 2 hours, 4 hours, 8 hours, and 24 hours after administration, respectively, and placed into sodium heparin anticoagulant tubes. The tubes were centrifuged for 1 hour at 4° C. and at 8000 rpm for 5 minutes, and the plasma was then separated and stored in centrifuge tubes at −70° C. for analysis. The plasma concentration-time data were processed using the Phoenix® WinNonlin® 8.0 program to calculate pharmacokinetic parameters. Among them, Cmax and Tmax are measured values, the elimination rate constant k of the tail section of the C-t curve is obtained from the linear regression of LnC-t, and the value of AUC0-4 is calculated by the trapezoidal area method, and the area under the curve from 0 to ∞ time is AUC=AUC0-4+Ct/k. [table]

SMILES | significant inhibition of AA-induced platelet aggregation [1] | Vd ([2]; IV 1 mg/kg, read-out: Vss) [L/kg] | Vd ([2]; IV 1 mg/kg, read-out: Vz) [L/kg] | AUC(0-inf) ([2]; IV 1 mg/kg) [µg·h/mL] | AUC(0-t) ([2]; IV 1 mg/kg) [µg·h/mL] | C0 ([2]; IV 1 mg/kg) [ng/mL] | Cmax ([2]; IV 1 mg/kg) [ng/mL] | Tmax ([2]; IV 1 mg/kg) [h] | half-life ([2]; IV 1 mg/kg) [h] | MRT last ([2]; IV 1 mg/kg) [h] | MRT inf ([2]; IV 1 mg/kg) [h] | AUC(0-inf) ([2]; PO 6 mg/kg) [µg·h/mL] | AUC(0-t) ([2]; PO 6 mg/kg) [µg·h/mL] | Cmax ([2]; PO 6 mg/kg) [ng/mL] | Tmax ([2]; PO 6 mg/kg) [h] | half-life ([2]; PO 6 mg/kg) [h] | bioavailability [2] [%] | MRT last ([2]; PO 6 mg/kg) [h] | MRT inf ([2]; PO 6 mg/kg) [h] | T1/2 and AUC(0-∞) in the whole body blood circulation system as compared to that of Ozagrel ([2]; intravenously at 1 mg/kg) | further results
O=C(O)[C@@H]1C[C@H]1c1ccc(Cn2cnc(Cl)c2)c(Cl)c1 [Compound 11, (1R,2R)-2-(3-Chloro-4-((4-chloro-1H-imidazol-1-yl)methyl)phenyl)cyclopropane-1-carboxylic acid] | can significantly inhibit | 0.22 | 0.22 | 228 | 86.4 | 5150 | 5140 | 0.083 | 34.8 | 10.5 | 50.1 | 1700 | 587 | 32400 | 4 | 37 | 113 | 11 | 54.4 | significantly increased | T1/2 and AUC(0-∞) in the whole body blood circulation system as compared to that of Ozagrel ([2]; orally at 6 mg/kg): significantly increased
O=C(O)[C@@H]1C[C@H]1c1ccc(Cn2ccnc2)c(F)c1 [Compound 15, (1R,2R)-2-(4-((1H-Imidazol-1-yl)methyl)-3-fluorophenyl)cyclopropane-1-carboxylic acid] | can significantly inhibit | 0.34 | 0.38 | 3.44 | 3.43 | 3710 | 3160 | 0.083 | 0.91 | 1.14 | 1.16 | 80.7 | 78.4 | 18600 | 1 | 1.51 | 381 | 2.57 | 2.79 | significantly increased | T1/2 and AUC(0-∞) in the whole body blood circulation system as compared to that of Ozagrel ([2]; orally at 6 mg/kg): significantly increased
O=C(O)[C@@H]1C[C@H]1c1ccc(Cn2cnc(F)c2)cc1F [Compound 17, (1R,2R)-2-(2-Fluoro-4-((4-fluoro-1H-imidazol-1-yl)methyl)phenyl)cyclopropane-1-carboxylic acid] | can significantly inhibit | 0.22 | 0.27 | 17.6 | 17.5 | 7320 | 6840 | 0.083 | 3.24 | 3.8 | 3.91 | 179 | 178 | 27200 | 2 | 2.96 | 169 | 4.16 | 4.25 | significantly increased | T1/2 and AUC(0-∞) in the whole body blood circulation system as compared to that of Ozagrel ([2]; orally at 6 mg/kg): significantly increased
O=C(O)[C@@H]1C[C@H]1c1ccc(Cn2cnc(F)c2)c(Cl)c1 [Compound 18, (1R,2R)-2-(3-Chloro-4-((4-fluoro-1H-imidazol-1-yl)methyl)phenyl)cyclopropane-1-carboxylic acid] | can significantly inhibit | 0.2 | 0.21 | 70.7 | 55.9 | 6590 | 6340 | 0.083 | 10.4 | 7.73 | 14.3 | 757 | 576 | 41400 | 1 | 11.6 | 172 | 8.39 | 16.1 | significantly increased | T1/2 and AUC(0-∞) in the whole body blood circulation system as compared to that of Ozagrel ([2]; orally at 6 mg/kg): significantly increased
O=C(O)[C@@H]1C[C@H]1c1ccc(Cn2ccnc2)cc1 [Compound 19, (1R,2R)-2-(4-((1H-Imidazol-1-yl)methyl)phenyl)cyclopropane-1-carboxylic acid] | can significantly inhibit | 0.16 | 0.2 | 3.25 | 3.25 | 6870 | 5490 | 0.083 | 0.44 | 0.5 | 0.51 | 36.6 | 36.6 | 27300 | 0.25 | 0.72 | 188 | 1.19 | 1.2 | – | –
O=C(O)/C=C/c1ccc(Cn2ccnc2)cc1 [Ozagrel, reference compound] | – | 0.25 | 0.74 | 0.51 | 0.51 | 3670 | 1840 | 0.083 | 0.26 | 0.12 | 0.13 | 2.68 | 2.68 | 3780 | 0.25 | 0.73 | 87.5 | 0.62 | 0.63 | – | –
